The text below walks through data of PMC7926793, “Synthesis and Biological Evaluation of 1-(Diarylmethyl)-1H-1,2,4-triazoles and 1-(Diarylmethyl)-1H-imidazoles as a Novel Class of Anti-Mitotic Agent for Activity in Breast Cancer” (Pharmaceuticals, 2021).

Broadly, the GI50 is the concentration giving 50% growth inhibition. Read a high GI50 as lower sensitivity of the cells.

One data set concerns NCI-H332M. In words: NCI 60 cell line screen (Non-Small Cell Lung Cancer). In kind it is cell-based, human. The conditions noted are these: for GI50: Homo sapiens, NCI 5 dose assay; for Growth percentage: single dose 10 µM.
The test system of data set [1] is MCF-10A non-tumorigenic human mammary epithelial cells. In words: toxicity evaluation, alamarBlue assay. The conditions noted are these: 10 μM, 24 h. In kind it is cell-based. A general note: Alamar Blue is a resazurin reagent that responds to reducing activity.
The test system of a further data set is UO-31. In words: NCI 60 cell line screen (Renal Cancer). In kind it is cell-based, human. The conditions noted are these: for GI50: Homo sapiens, UO-31, NCI 5 dose assay; for Growth percentage: UO-31, single dose 10 µM.
The subject of the next data set is SF539. In words: NCI 60 cell line screen (CNS Cancer). The note with it: for GI50: Homo sapiens, SF-539, SF539, NCI 5 dose assay; for Growth percentage: SF539, single dose 10 µM. In kind it is cell-based, human.
The test system of the next data set is K-562. In words: NCI 60 cell line screen (Leukemia). In kind it is cell-based, human. The conditions noted are these: for GI50: Homo sapiens, K562, K-562, NCI 5 dose assay; for Growth percentage: K-562, single dose 10 µM.
A further data set deals with CCRF-CEM. In words: NCI 60 cell line screen (Leukemia). In kind it is cell-based, human. The note with it: for GI50: Homo sapiens, NCI 5 dose assay; for Growth percentage: single dose 10 µM.
The subject of the next data set is UACC-257. In words: NCI 60 cell line screen (Melanoma). The conditions noted are these: for GI50: Homo sapiens, UACC-257, NCI 5 dose assay; for Growth percentage: UACC-257, single dose 10 µM. In kind it is cell-based, human.
In a further data set the test system is CAKI-1. In words: NCI 60 cell line screen (Renal Cancer). Format: cell-based, human. The note with it: for Growth percentage: CAKI-1, single dose 10 µM; for GI50: Homo sapiens, CAKI-1, NCI 5 dose assay.
The next data set has as its system SW-620. In words: NCI 60 cell line screen (Colon Cancer). In kind it is cell-based, human. The conditions noted are these: for GI50: Homo sapiens, SW-620, NCI 5 dose assay; for Growth percentage: SW-620, single dose 10 µM.
The subject of a further data set is OVCAR-8. In words: NCI 60 cell line screen (Ovarian Cancer). The conditions noted are these: for GI50: Homo sapiens, OVCAR-8, NCI 5 dose assay; for Growth percentage: OVCAR-8, single dose 10 µM. In kind it is cell-based, human.
The subject of a further data set is SN12C. In words: NCI 60 cell line screen (Renal Cancer). In kind it is cell-based, human. The conditions noted are these: for GI50: Homo sapiens, NCI 5 dose assay; for Growth percentage: single dose 10 µM.
Another data set has as its system U251 (AC in Table 3). In words: NCI 60 cell line screen (CNS Cancer). The conditions noted are these: for GI50: Homo sapiens, U-251, cell line printed AC, NCI 5 dose assay; for Growth percentage: U251, single dose 10 µM. In kind it is cell-based, human.
The subject of another data set is LOX IMV1. In words: NCI 60 cell line screen (Melanoma). In kind it is cell-based, human. The note with it: for GI50: Homo sapiens, LOX IMV1, NCI 5 dose assay; for Growth percentage: LOX IMV1, single dose 10 µM.
The next data set deals with BT-549. In words: NCI 60 cell line screen (Breast Cancer). Format: cell-based, human. The note with it: for Growth percentage: BT-549, single dose 10 µM; for GI50: Homo sapiens, BT-549, NCI 5 dose assay.
A further data set deals with 786-0. In words: NCI 60 cell line screen (Renal Cancer). In kind it is cell-based, human. The conditions noted are these: for Growth percentage: 786-0, single dose 10 µM; for GI50: Homo sapiens, 786-0, NCI 5 dose assay.
Another data set deals with OVCAR-4. In words: NCI 60 cell line screen (Ovarian Cancer). The note with it: for GI50: Homo sapiens, OVCAR-4, NCI 5 dose assay; for Growth percentage: OVCAR-4, single dose 10 µM. In kind it is cell-based, human.
A further data set concerns A498. In words: NCI 60 cell line screen (Renal Cancer). The note with it: for Growth percentage: A498, single dose 10 µM; for GI50: Homo sapiens, A498, NCI 5 dose assay. In kind it is cell-based, human.
A further data set relates to MCF-7 cells. In words: cell cycle analysis, PI staining, flow cytometry. Format: cell-based, human. The conditions noted are these: 1 μM. The method, then:
The cells were collected by trypsinisation and centrifuged at 800× g for 15 min. Cells were washed twice with ice-cold phosphate-buffered saline (PBS) and fixed in ice-cold 70% ethanol overnight at −20 °C.
In general terms: Flow cytometry measures light scatter and fluorescence of single cells or particles in a stream.

The nature of data set [2]: HPLC stability study in phosphate buffers. In kind it is physicochemical. The procedure: Stability studies for compounds 21l and 24 were performed by analytical HPLC using a Symmetry® column (C18, […], 4.6 × 150 mm), a Waters 2487 Dual Wavelength Absorbance detector, a Waters 1525 binary HPLC pump, and a Waters 717 plus Autosampler (Waters Corporation, Milford, MA, USA). Samples were detected at λ 254 nm using acetonitrile (70%)/water (30%) as the mobile phase over 15 min and a flow rate of 1 mL/min. Stock solutions of the compounds are prepared using 10 mg of compounds 21l and 24 in 10 mL of mobile phase (1 mg/mL). Phosphate buffers at the desired pH values (4, 7.4, and 9) were prepared following the British Pharmacopoeia monograph 2020. Then, 30 μL of stock solution was diluted with 1 mL of appropriate buffer, shaken, and injected immediately. Samples were withdrawn and analysed at time intervals of t = 0 min, 5 min, 30 min, 60 min, and hourly for 24 h.

For the compound `COc1ccc(C(c2cc(OC)c(OC)c(OC)c2)n2cncn2)cc1O` (stereo not shown) [19e, 5-((1H-1,2,4-Triazol-1-yl)(3,4,5-Trimethoxyphenyl)methyl)-2-Methoxyphenol], the GI50 is 696 nM with NCI-H332M; 903 nM in the data set with UO-31; 300 nM in the data set with SF539; 427 nM in the data set with K-562; 402 nM with CCRF-CEM; over 100000 nM in the data set on UACC-257. In addition, the GI50 in the data set on CAKI-1 was 567 nM; in the data set on SW-620, 431 nM; in the data set on OVCAR-8, 1140 nM; in the data set with SN12C, 853 nM; with U251 (AC in Table 3), 446 nM; in the data set with LOX IMV1, 523 nM. Further, the GI50 with BT-549 was determined as 618 nM; with 786-0, 475 nM; in the data set on OVCAR-4, 3020 nM; in the data set with A498, 324 nM. Moreover, the Growth percentage with NCI-H332M stood at 51.45%; with UO-31, 57.96%; with SF539, 9.34%; in the data set with K-562, 8.34%; with CCRF-CEM, 9.32%; in the data set on UACC-257, 44.45%. For the same compound, the Growth percentage with CAKI-1 is 40.43%; with SW-620, 29.08%; in the data set with OVCAR-8, 13.43%; in the data set with SN12C it was 39.32%; with U251 (AC in Table 3) it was 15.32%; in the data set on LOX IMV1, 43.48%. For the same compound, the Growth percentage with BT-549 was 11.30%; with 786-0, 28.10%; in the data set on OVCAR-4, 72.08%; in the data set on A498, 9.66%. Further, the cell death result in data set [1] is “approximately 50%”.
On to `COc1ccc(C(c2cc(OC)c(OC)c(OC)c2)n2ccnc2)cc1O` (stereo not shown) [21l, 5-((1H-Imidazol-1-yl)(3,4,5-Trimethoxyphenyl)Methyl)-2-Methoxyphenol], for which the GI50 with NCI-H332M was found to be 789 nM; in the data set with UO-31, 883 nM; in the data set with SF539 it was 217 nM; in the data set with K-562, 225 nM; in the data set with CCRF-CEM, 289 nM; in the data set on UACC-257, 1440 nM. Also, the GI50 in the data set with CAKI-1 came out at 681 nM; with SW-620, 387 nM; with OVCAR-8, 450 nM; in the data set on SN12C it was 910 nM; in the data set with U251 (AC in Table 3) it was 391 nM; in the data set on LOX IMV1, 523 nM. In addition, the GI50 in the data set with BT-549 was determined as 306 nM; with 786-0, 369 nM; in the data set on OVCAR-4, 3440 nM; with A498, 304 nM. Also, the Growth percentage was 48.23% with NCI-H332M; 61.96% with UO-31; 9.52% in the data set with SF539; 8.00% in the data set on K-562; 6.97% in the data set with CCRF-CEM; 37.75% with UACC-257. Moreover, the Growth percentage is listed as 41.26% in the data set on CAKI-1; 28.61% with SW-620; 10.28% in the data set with OVCAR-8; 37.55% with SN12C; 15.52% in the data set on U251 (AC in Table 3); 25.65% in the data set with LOX IMV1. Further, the Growth percentage in the data set with BT-549 is listed as -0.07%; in the data set on 786-0 it was 19.99%; in the data set on OVCAR-4, 73.56%; in the data set on A498, 8.04%. In addition, in [1], the cell death result is “approximately 50%”. The “cells in the G2/M phase” value was determined as 47% in the data set on MCF-7 cells (24 h), 43% in the data set with MCF-7 cells (48 h) and 40% in the data set on MCF-7 cells (72 h). Further, the results for the “cells undergoing apoptosis (sub-G1)” value with MCF-7 cells (24 h), with MCF-7 cells (48 h) and in the data set with MCF-7 cells (72 h) were 15%, 31% and 37%, respectively. Moreover, the “compound remaining (HPLC)” value in data set [2] (pH 4, 24 h) came to 90%.
On to `COc1ccc(C(c2cc(OC)c(OC)c(OC)c2)N2CCCCC2)cc1` (stereo not shown) [26b, 1-((4-Methoxyphenyl)(3,4,5-Trimethoxyphenyl)Methyl)Piperidine], for which the Growth percentage is given as 47.90% with NCI-H332M; 48.76% with UO-31; 27.71% in the data set on SF539; 18.04% with K-562; 29.91% in the data set with CCRF-CEM; 54.88% with UACC-257. The Growth percentage with CAKI-1 was 29.22%; with SW-620 it was 14.47%; with OVCAR-8 it was 50.11%; with SN12C it was 54.32%; in the data set on U251 (AC in Table 3) it was 26.12%; in the data set with LOX IMV1 it was 36.34%. The Growth percentage was 49.73% with BT-549, 38.84% with 786-0, 69.25% in the data set on OVCAR-4 and 7.32% with A498.
For `COc1ccc(C(c2cc(OC)c(OC)c(OC)c2)N2CCN(Cc3ccccc3)CC2)cc1` (stereo not shown) [27d], the Growth percentage with NCI-H332M turned out to be 65.07%; in the data set with UO-31, 68.80%; in the data set with SF539, 81.24%; in the data set on K-562 it was 26.38%; in the data set with CCRF-CEM, 68.76%; in the data set on UACC-257, 84.23%. Further, the Growth percentage amounted to 66.73% with CAKI-1; 43.57% in the data set with SW-620; 92.58% in the data set with OVCAR-8; 88.36% with SN12C; 62.75% in the data set with U251 (AC in Table 3); 67.02% with LOX IMV1. Further, the Growth percentage was determined as 92.41% with BT-549, 82.57% with 786-0, 97.02% in the data set with OVCAR-4 and 51.90% with A498.
In the case of `COc1ccc(C(c2cc(OC)c(OC)c(OC)c2)n2nccn2)cc1O` (stereo not shown) [compound 24], the figures for the “cells in the G2/M phase” value with MCF-7 cells (24 h), in the data set on MCF-7 cells (48 h) and in the data set with MCF-7 cells (72 h) were 52%, 56% and 59%, respectively. Besides, the “compound remaining (HPLC)” value is recorded as 65% in [2] (pH 4, 24 h); 50% in data set [2] (pH 7.4, 24 h); 60% in data set [2] (pH 9, 24 h).
For `COc1ccc(C(c2cc(OC)c(OC)c(OC)c2)N2CCCC2)cc1` (stereo not shown) [25g], the Growth percentage in the data set with NCI-H332M came to 87.51%; with UO-31, 75.13%; in the data set on SF539 it was 95.69%; in the data set on K-562 it was 25.23%; in the data set on CCRF-CEM, 71.21%; in the data set on UACC-257, 74.57%. Moreover, the Growth percentage in the data set with CAKI-1 is on record as 77.46%; with SW-620, 47.76%; in the data set on OVCAR-8, 95.58%; in the data set on SN12C, 108.47%; with U251 (AC in Table 3), 77.78%; in the data set with LOX IMV1 it was 72.96%. Also, the Growth percentage with BT-549 came out at 81.58%; in the data set on 786-0, 93.40%; in the data set on OVCAR-4, 101.25%; in the data set with A498 it was 31.23%.
